# Test results taken from patent publication US20240124470A1, “FIVE-MEMBERED RING DERIVATIVE AND MEDICAL USE THEREOF” (SICHUAN HAISCO PHARMACEUTICAL CO., LTD., priority 2020, published 2024).
# How the values were obtained:
# [1] = Stability test in mouse liver microsomes; format: in vitro ADME; details: mouse liver microsomes 0.5 mg/mL, 1 μM compound, NADPH, 37° C.; for microsomal CLint at 1 μM: read-out: CLint(mic)
# Protocol: (§1) 3. Stability Test in Mouse Liver Microsomes At 37° C., 1 μM of the test compound was incubated with mouse liver microsomes (0.5 mg/mL) supplemented with NADPH regeneration system for 5, 10, 20, 30 and 60 minutes, and then LC-MS/MS method was used to detect the concentration of the test compound in the generated sample. The half-life (T1/2) and inherent clearance rate (CLint(mic)) of the compound in mouse liver microsome solution were obtained by calculating at the corresponding time points and the remaining percentage of the compound.
# hERG potassium channel = target: T1, hERG potassium channel (Homo sapiens, UniProt Q12809); experiment: Effects on hERG potassium channels, manual whole cell patch-clamp in CHO cells; format: cell-based; details: hERG potassium current, room temperature
# T1 construct: expressed in transfected cells
# T1 sequence (Q12809 whole entry): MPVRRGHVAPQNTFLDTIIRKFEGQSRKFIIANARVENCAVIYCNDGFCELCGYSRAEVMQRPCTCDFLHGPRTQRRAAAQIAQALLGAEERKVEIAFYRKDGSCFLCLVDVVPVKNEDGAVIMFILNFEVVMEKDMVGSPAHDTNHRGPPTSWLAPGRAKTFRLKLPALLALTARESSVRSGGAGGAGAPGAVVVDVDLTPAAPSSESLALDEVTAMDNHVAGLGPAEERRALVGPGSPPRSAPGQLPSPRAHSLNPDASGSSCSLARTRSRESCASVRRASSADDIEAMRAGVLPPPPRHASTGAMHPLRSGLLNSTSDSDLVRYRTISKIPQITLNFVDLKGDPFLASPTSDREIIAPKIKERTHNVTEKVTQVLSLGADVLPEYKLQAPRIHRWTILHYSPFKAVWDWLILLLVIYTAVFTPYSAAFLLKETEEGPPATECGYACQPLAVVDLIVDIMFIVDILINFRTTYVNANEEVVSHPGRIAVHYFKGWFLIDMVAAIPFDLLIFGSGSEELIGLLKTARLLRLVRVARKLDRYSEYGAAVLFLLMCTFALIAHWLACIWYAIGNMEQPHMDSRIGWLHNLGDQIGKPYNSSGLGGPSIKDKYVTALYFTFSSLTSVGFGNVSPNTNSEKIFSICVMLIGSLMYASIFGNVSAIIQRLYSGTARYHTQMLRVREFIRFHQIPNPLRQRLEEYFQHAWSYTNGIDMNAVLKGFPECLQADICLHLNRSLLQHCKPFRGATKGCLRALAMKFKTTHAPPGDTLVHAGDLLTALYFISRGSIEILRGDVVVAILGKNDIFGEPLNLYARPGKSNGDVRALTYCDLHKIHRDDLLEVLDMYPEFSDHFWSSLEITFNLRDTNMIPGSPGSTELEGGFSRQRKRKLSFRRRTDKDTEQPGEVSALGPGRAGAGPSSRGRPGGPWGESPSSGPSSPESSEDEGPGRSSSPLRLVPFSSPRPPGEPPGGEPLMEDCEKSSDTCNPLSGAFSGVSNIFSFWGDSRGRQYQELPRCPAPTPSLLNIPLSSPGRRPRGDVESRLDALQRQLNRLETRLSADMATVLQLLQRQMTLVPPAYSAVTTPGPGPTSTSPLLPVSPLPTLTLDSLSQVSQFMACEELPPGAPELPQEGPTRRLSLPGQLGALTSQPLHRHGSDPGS
# Text: 2. Effects of the Compounds on hERG Potassium Channels
# Experimental platform: electrophysiological manual patch-clamp system
# Cell line: Chinese hamster ovary (CHO) cells stably expressing hERG potassium ion channel
# Experimental method: For CHO (Chinese Hamster Ovary) cells stably expressing hERG potassium channel, whole cell patch-clamp technique was used to recorded hERG potassium channel current at room temperature in this experiment. The glass microelectrode is made of a glass electrode blank (BF150-86-10, Sutter) by a puller. The tip resistance after filling the liquid in the electrode is about 2-5 MΩ. The glass microelectrode can be connected to the patch-clamp amplifier by inserting the glass microelectrode into an amplifier probe. The clamping voltage and data recording are controlled and recorded by the pClamp 10 software through a computer. The sampling frequency is 10 kHz, and the filtering frequency is 2 kHz. After the whole cell records were obtained, the cells were clamped at −80 mV, and the step voltage that induced the hERG potassium current (IhERG) was depolarized from −80 mV to +20 mV for 2 s, then repolarized to −50 mV, and returned to −80 mV after 1 s. This voltage stimulation was given every 10 s, and the administration process was started after the hERG potassium current was confirmed to be stable (at least 1 minute). The compound was administered for at least 1 minute at each test concentration, and at least 2 cells (n≥2) were tested at each concentration.
# Data analysis processing was carried out by using pClamp 10, GraphPad Prism 5 and Excel software. The inhibition degree of hERG potassium current (peak value of hERG tail current induced at −50 mV) at different compound concentrations was calculated by the following formula: Inhibition %=[1−(I/Io)]×100%.
# Among the formula, Inhibition % represents the percentage of inhibition of hERG potassium current by the compound, and I and Io represent the amplitude of hERG potassium current after and before dosing, respectively.
# Compound IC50 was calculated using GraphPad Prism 5 software by fitting according to the following equation:
# Y=Bottom+(Top−Bottom)/(1+10^((LogIC50−X)×HillSlope))
# Among the equation, X represents the Log value of the tested concentration of the test sample, Y represents the inhibition percentage at the corresponding concentration, and Bottom and Top represent the minimum and maximum inhibition percentage, respectively.
# PDE10A1 = target: T2, PDE10A1 (Homo sapiens, UniProt Q9Y233); experiment: PDE10A1 inhibition by fluorescence polarization; format: biochemical; details: PDE10A1 kit, read-out: IC50 (μM), inhibitory effect on PDE10A1
# T2 construct: purchased Biomol (BPS Bioscience) BPS-60385
# T2 sequence (Q9Y233 1-779 isoform Q9Y233-1): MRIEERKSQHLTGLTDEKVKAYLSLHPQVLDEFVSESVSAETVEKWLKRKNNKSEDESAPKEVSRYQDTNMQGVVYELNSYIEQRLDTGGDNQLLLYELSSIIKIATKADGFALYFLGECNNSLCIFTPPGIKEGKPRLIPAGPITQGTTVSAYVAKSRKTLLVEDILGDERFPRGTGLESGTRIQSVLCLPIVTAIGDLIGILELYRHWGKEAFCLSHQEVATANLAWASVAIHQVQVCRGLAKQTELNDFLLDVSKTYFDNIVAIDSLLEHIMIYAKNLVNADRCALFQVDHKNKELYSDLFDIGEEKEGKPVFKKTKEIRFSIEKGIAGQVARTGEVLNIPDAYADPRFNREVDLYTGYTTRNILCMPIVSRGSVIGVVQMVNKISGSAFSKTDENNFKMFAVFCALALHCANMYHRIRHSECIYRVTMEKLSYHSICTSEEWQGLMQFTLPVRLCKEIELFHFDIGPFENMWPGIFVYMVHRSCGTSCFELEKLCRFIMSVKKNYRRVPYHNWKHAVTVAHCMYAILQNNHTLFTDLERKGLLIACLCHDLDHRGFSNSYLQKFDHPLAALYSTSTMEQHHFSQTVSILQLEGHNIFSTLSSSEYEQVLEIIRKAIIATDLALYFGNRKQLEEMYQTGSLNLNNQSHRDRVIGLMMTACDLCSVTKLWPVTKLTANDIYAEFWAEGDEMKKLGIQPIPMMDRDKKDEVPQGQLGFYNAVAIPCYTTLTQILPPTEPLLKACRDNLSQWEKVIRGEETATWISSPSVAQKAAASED
# Text: 8. Activity of the Compounds on PDE10A1
# In this experiment, the effect of the compounds on the inhibition of PDE10A1 activity was detected by the method of fluorescence polarization. PDE10A1 kit was used for detection (Biomol, BPS-60385). […]
# [2] = Stability test in monkey liver microsomes; format: in vitro ADME
# Protocol: as §1, with “4.” for “3.”, “Monkey” for “Mouse”, “monkey” for “mouse”, “15, 30, 45” for “10, 20, 30”
# [3] = Stability test in human liver microsomes; format: in vitro ADME; details: human liver microsomes 0.5 mg/mL, 1 μM compound, NADPH, 37° C.
# Protocol: as §1, with “7.” for “3.”, “Human” for “Mouse”, “human” for “mouse”
# [4] = Stability test in canine liver microsomes; format: in vitro ADME; details: dog
# Protocol: as §1, with “6.” for “3.”, “Canine” for “Mouse”, “canine” for “mouse”, “15, 30, 45” for “10, 20, 30”
Compound,half-life at 1 μM [1],microsomal CLint at 1 μM [1],IC50 (hERG potassium channel),IC50 (PDE10A1),"half-life at 1 μM ([2]; monkey liver microsomes 0.5 mg/mL, 1 μM compound, NADPH, 37° C.)","microsomal CLint at 1 μM ([2]; monkey, microsomes)",half-life at 1 μM [3],microsomal CLint at 1 μM ([3]; read-out: CLint(mic)),microsomal CLint at 1 μM ([4]; microsomes),"half-life at 1 μM ([4]; canine liver microsomes 0.5 mg/mL, 1 μM compound, NADPH, 37° C.)"
CC1(c2ccc(C#N)cc2F)Oc2cccc(C3CCN(Cc4nc5sc(C(=O)O)cc5n4C[C@@H]4CCO4)CC3)c2O1 (stereo partly shown) [Compound 5-2],93.1 h,0.252 µL/min/mg,> 40 µM,,,,,,,
"N#Cc1ccc(COc2cccc(C3=CCN(Cc4nc5sc(C(=O)O)cc5n4C[C@@H]4CCO4)CC3)n2)c(F)c1 [Compound 2, (S)-2-((6-((4-cyano-2-fluorobenzyl)oxy)-3′,6′-dihydro-[2,4′-bipyridin]-1′(2′H)-yl)methyl)-1-(oxetan-2-ylmethyl)-1H-thieno[2,3-d]imidazole-5-carboxylic acid]",23.6 h,0.977 µL/min/mg,52.2 µM,> 500 µM,14 h,1.6 µL/min/mg,,,,
"N#Cc1ccc(COc2cccc(-c3ccc(Cc4nc5ccc(C(=O)O)cc5n4C[C@@H]4CCO4)c(F)c3)n2)c(F)c1 [Compound DZ-6, reference compound]",2.17 h,10.6 µL/min/mg,,,,,2.88 h,8.01 µL/min/mg,,
"N#Cc1ccc(COc2cccc(C3CCN(Cc4nc5sc(C(=O)O)cc5n4C[C@@H]4CCO4)CC3)n2)c(F)c1 [Compound 1, (S)-2-((4-(6-((4-cyano-2-fluorobenzyl)oxy)pyridin-2-yl)piperidin-1-yl)methyl)-1-(oxetan-2-ylmethyl)-1H-thieno[2,3-d]imidazole-5-carboxylic acid]",,,33.6 µM,,,,,,0.23 µL/min/mg,102 h
